This is an account of results in patent US20260207641A1, “COMBINATION THERAPY FOR CANCER USING ROS-ACTIVATED PRODRUGS AND ROS-AMPLIFYING THERAPEUTICS” (UWM Research Foundation, Inc., priority 2023, published 2026).

Where “and” joins values, the source holds several entries; their conditions need not be identical. Identical values can stand only once. Like-named read-outs stand apart in the source and are kept apart here.

In one test the test system is MCF 10A (normal cells). The test can be described thus: Cytotoxicity dose response (CellTiter-Glo, 48 h). The class given is cell-based, human. On the technique in general: ATP-based viability assays read luminescence as a measure of living cells.
Test [1] has as its system MDA-MB-468 cells. The test can be described thus: Cytotoxicity dose response (CellTiter-Glo, 48 h). The class given is cell-based, human.
Test [2] concerns MDA-MB-468 breast cancer xenograft. Details: species or system immune-deficient female nude mice. The settings on record: mouse, in vivo.
The subject of another test is MDA-MB-231 cells. The test can be described thus: cells. The class given is cell-based, human.
Test [3] deals with extracellular H2O2 in MCF7 cells. The test can be described thus: Extracellular H2O2 measurement (Amplex Red assay). The class given is cell-based, human. The settings on record: 48 h.
Another test has as its system MCF 10A cells. Type of test: cell-based, human.
Test [4] concerns extracellular H2O2 in MDA-MB-468 cells. The test can be described thus: Extracellular H2O2 measurement (Amplex Red assay). The class given is cell-based, human. The settings on record: MDA-MB-468 at maximum safe ascorbic acid dose, 48 h.
For test [5], the system named is intracellular H2O2 in MDA-MB-468 cells. The test can be described thus: Intracellular H2O2 measurement (AbGreen indicator). Type of test: cell-based, human. The settings on record: MDA-MB-468 under ascorbic acid treatment, 48 h.
Test [6] concerns extracellular H2O2 in U-87 MG cells. Kind of test: Extracellular H2O2 measurement (Amplex Red assay). Type of test: cell-based. The settings on record: U-87 MG at maximum safe ascorbic acid dose, 48 h.
In test [7] the test system is MCF7 cells.
Test [8] relates to U-87 MG cells.
Test [9] has as its system MCF7 cells. The test can be described thus: cells. The class given is cell-based, human.
For the next test, the system named is MDA-MB-436 cells. The test can be described thus: cells. Type of test: cell-based, human.
Test [10] concerns MDA-MB-468 cells. Type of test: cell-based, human.
Test [11] concerns extracellular H2O2 in MCF 10A cells. The test can be described thus: Extracellular H2O2 measurement (Amplex Red assay). Type of test: cell-based, human. The settings on record: MCF 10A at maximum safe ascorbic acid dose, 48 h.
Test [12] has as its system MDA-MB-468 cells. The class given is cell-based, human. The source holds these as a separate data set.
The subject of test [13] is U-87 MG cells. Kind of test: cells. Type of test: cell-based.
For the next test, the system named is HMEC cells. Kind of test: cells. The settings on record: Homo sapiens, 48 h. The class given is cell-based.
For test [14], the system named is MDA-MB-468 cells. The settings on record: cited from earlier work.

Turning to `COc1cc(/C=C/C(=O)N2CCC=CC2=O)cc(OC)c1OC` [Piperlogumine], the “MSD (Maximum Safe Dose)” value in the test with MCF 10A (normal cells) worked out at 1.56 µM. The compound also registered an IC50 with MCF 10A (normal cells) (Homo sapiens, MCF-10A, 48 h) of 4.91 ± 0.51 µM. Besides, in the test on MDA-MB-468 cells [1], the “MSD (Maximum Safe Dose)” value was 0.78 µM, the “SI (Selectivity Index)” value worked out at 2 and the “SI of Prodrug Combined with Maximum Safety Dose of Pro-oxidant” value (shortened to “SI of Prodrug Combined”) is on record as 6. In the test with MDA-MB-468 cells [1] (Homo sapiens, MDA-MB-468, 48 h), this compound showed an IC50 of 2.24 ± 0.05 µM.
`O=C1O[C@H]([C@@H](O)CO)C(O)=C1O` [Vitamin C]: in test [2], the “effect on tumor size” value was “observable inhibitory effects on the tumor size”. Further, the “Maximum Safe Dose (MSD)” value in the test on MDA-MB-231 cells was 1 mM; in the test with MCF7 cells [9], 0.25 mM; in the test on MCF 10A (normal cells), 1.25 mM; with MDA-MB-436 cells, 1 mM; in the test with U-87 MG cells [13] it was 0.3 mM and 0.30 mM; in the test on MDA-MB-468 cells [1], 1 mM and 1.00 mM. The IC50 in the test on MDA-MB-231 cells (Homo sapiens, MDA-MB-231, 48 h) stood at 2230 ± 300 µM; with MCF7 cells [9] it was 970 ± 70 µM; in the test with MCF7 cells [9] (Homo sapiens, MCF7, 48 h) it was 1000 µM; in the test with MCF 10A (normal cells), 4200 ± 400 µM; in the test on MDA-MB-436 cells (Homo sapiens, MDA-MB-436, 48 h), 1390 ± 100 µM; in the test with U-87 MG cells [13] (Homo sapiens, U-87 MG, 48 h) it was 1000 µM. The compound also registered an IC50 in the test on HMEC cells of 2670 ± 400 µM. Also, the “H2O2 generated (most substantial change)” value in [3] (MCF7, increasing mM ascorbic acid) was “over 20 μM”. The “extracellular H2O2 level” value in test [3] (MCF7 at maximum safe ascorbic acid dose) was about 7 µM; in test [4], “around 10 μM”; in test [6], about 7 µM; in test [11], about 5 µM. The “dose found to be safe” value in the test on MCF 10A cells is on record as 1 mM; with MCF7 cells [7] it was 0.25 mM; in the test on U-87 MG cells [8], 0.25 mM; with MDA-MB-468 cells [12] it was 1 mM. The “intracellular H2O2 level compared to untreated samples” value in test [5] is reported as “significant threefold increase”. Moreover, the “observable DNA damage” value in the test with MDA-MB-468 cells [10] is listed as “did not show any observable DNA damage”.
Turning to `CCCOC(=O)c1cc(O)c(O)c(O)c1` [Propyl Gallate], the “MSD (Maximum Safe Dose)” value in the test on MCF 10A (normal cells) turned out to be 12.50 µM. The IC50 with MCF 10A (normal cells) (Homo sapiens, MCF-10A, 48 h) came to 51.4 ± 5.45 µM. Further, in the test with MDA-MB-468 cells [1], the “MSD (Maximum Safe Dose)” value worked out at 25.00 µM, the “SI (Selectivity Index)” value was found to be 1 and the “SI of Prodrug Combined” value was found to be 3. The same compound had an IC50 in the test with MDA-MB-468 cells [1] (Homo sapiens, MDA-MB-468, 48 h) of 49.2 ± 1.83 µM.
Take `O=C(OC1Cc2c(O)cc(O)cc2OC1c1cc(O)c(O)c(O)c1)c1cc(O)c(O)c(O)c1` (stereo not drawn) [EGCG]: the “MSD (Maximum Safe Dose)” value with MCF 10A (normal cells) was 6.25 µM; with MDA-MB-468 cells [1], 12.50 µM. Moreover, the half-maximal inhibitory concentration (IC50) in the test on MCF 10A (normal cells) (Homo sapiens, MCF-10A, 48 h) was 28.5 ± 2.55 µM; with MDA-MB-468 cells [1] (Homo sapiens, MDA-MB-468, 48 h) it was 65 ± 3.45 µM. In addition, the “SI (Selectivity Index)” value with MDA-MB-468 cells [1] amounted to 0.5. For the same compound, the “SI of Prodrug Combined” value with MDA-MB-468 cells [1] is on record as 2.
As for `O=C(O)CCCc1ccc(N(CCCl)CCCl)cc1` [Chlorambucil], the IC50 is 34.4 µM in the test on MDA-MB-468 cells [14]; 30.2 ± 2.3 µM in the test on MDA-MB-468 cells [1] (Homo sapiens, MDA-MB-468, 48 h); 28.7 ± 2.4 µM in the test on MDA-MB-468 cells [1] (Homo sapiens, MDA-MB-468, read-out: IC50 in combination with Vitamin C Safe Dose). Also, the “Fold Change” value in the test with MDA-MB-468 cells [1] is reported as 1 fold.
Regarding Arsenic Trioxide, the “MSD (Maximum Safe Dose)” value with MCF 10A (normal cells) stood at 1.56 µM. In addition, the 50% inhibitory concentration (IC50) with MCF 10A (normal cells) (read-out: IC50) amounted to 8.52 ± 0.4 µM. Also, in the test on MDA-MB-468 cells [1], the “MSD (Maximum Safe Dose)” value worked out at 0.79 µM, the “SI (Selectivity Index)” value was 1 and the “SI of Prodrug Combined” value was found to be 5. Besides, the IC50 in the test on MDA-MB-468 cells [1] (read-out: IC50) was found to be 6.27 ± 0.33 µM.
In the case of `O=c1c(O)c(-c2ccc(O)c(O)c2)oc2cc(O)cc(O)c12` [Quercetin], the “MSD (Maximum Safe Dose)” value in the test on MCF 10A (normal cells) came out at 6.25 µM; in the test on MDA-MB-468 cells [1], 3.13 µM. The 50% inhibitory concentration (IC50) in the test with MCF 10A (normal cells) (Homo sapiens, MCF-10A, 48 h) amounted to 19.6 ± 1.24 µM; in the test with MDA-MB-468 cells [1] (Homo sapiens, MDA-MB-468, 48 h) it was 15.8 ± 2.15 µM.
Turning to `CC1(C)CCC2=C(O1)c1ccccc1C(=O)C2=O` [β-Lapachone], in the test on MCF 10A (normal cells), the “MSD (Maximum Safe Dose)” value turned out to be 1.56 µM. Further, the half-maximal inhibitory concentration (IC50) in the test on MCF 10A (normal cells) (Homo sapiens, MCF-10A, 48 h) came out at 3.42 ± 0.22 µM. Moreover, in the test with MDA-MB-468 cells [1], the “MSD (Maximum Safe Dose)” value stood at 0.78 µM, the “SI (Selectivity Index)” value was 3 and the “SI of Prodrug Combined” value is reported as 2. The compound further came in with an IC50 with MDA-MB-468 cells [1] (Homo sapiens, MDA-MB-468, 48 h) of 1.06 ± 0.17 µM.
Take `Cc1c(C)c2c(c(C)c1O)CCC(C)(CCCC(C)CCCC(C)CCCC(C)C)O2` (stereo not drawn) [Vitamin E]: the “MSD (Maximum Safe Dose)” value in the test on MCF 10A (normal cells) amounted to 25.00 µM. The IC50 in the test on MCF 10A (normal cells) (Homo sapiens, MCF-10A, 48 h) is 376 ± 21.4 µM. Besides, in the test with MDA-MB-468 cells [1], the “MSD (Maximum Safe Dose)” value was 1.56 µM, the “SI (Selectivity Index)” value was found to be 5 and the “SI of Prodrug Combined” value came to 11. This compound also returned an IC50 in the test with MDA-MB-468 cells [1] (Homo sapiens, MDA-MB-468, 48 h) of 76.5 ± 6.62 µM.

Broadly, the IC50 is the concentration that inhibits the measured activity by half.
